Each compound was assayed against T1, leukotriene D4 (LTD4) induced contraction of guinea pig tracheal spiral strips (Cavia porcellus, UniProt Q2NNR5) (assay: Inhibition of leukotriene (LTD4) induced contraction of guinea pig tracheal tissues in vitro). Conditions: LTD4 agonist, 30 min pretreatment with test compound, meclofenamic acid 1 μM, EC30 relative to carbachol (10 μM), read-out: In Vitro -Log KB (converted).
T1 construct: Guinea pig (adult male albino Hartley strain) tracheal spiral strips; from tissue; host or cells: guinea pig trachea (spiral strips, adult male albino Hartley strain)
T1 sequence (Q2NNR5 1-340): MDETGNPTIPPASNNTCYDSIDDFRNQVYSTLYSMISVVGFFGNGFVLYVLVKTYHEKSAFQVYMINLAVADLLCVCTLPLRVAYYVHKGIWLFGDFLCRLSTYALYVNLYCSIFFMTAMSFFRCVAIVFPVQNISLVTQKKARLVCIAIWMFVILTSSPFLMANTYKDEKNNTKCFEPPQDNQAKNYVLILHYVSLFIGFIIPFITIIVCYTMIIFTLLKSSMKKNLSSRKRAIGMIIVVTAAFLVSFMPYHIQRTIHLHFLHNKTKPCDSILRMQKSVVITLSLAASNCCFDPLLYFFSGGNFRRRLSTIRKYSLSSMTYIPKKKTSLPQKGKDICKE
Type: cell-based, guinea pig (adult male albino Hartley strain)
Experimental: The leukotriene antagonist activity of the compounds of this invention is measured by the ability of the compounds to inhibit the leukotriene induced contraction of guinea pig tracheal tissues in vitro. The following methodology was employed:
In vitro: Guinea pig (adult male albino Hartley strain) tracheal spiral strips of approximate dimensions 2 to 3 mm cross-sectional with and 3.5 cm length were bathed in modified Krebs buffer in jacketed 10 ml tissue bath and continuously aerated with 95% O2 /5% CO2. The tissues were connected via silk suture to force displacement transducers for recording isometric tension. The tissues were equilibrated for 1 hr., pretreated for 15 minutes with meclofenamic acid (1 μM) to remove intrinsic prostaglandin responses, and then pretreated for an additional 30 minutes with either the test compound or vehicle control. A cumulative concentration-response curve for LTD4 on triplicate tissues was generated by successive increases in the bath concentration of the LTD4. In order to minimize intertissue variability, the contractions elicited by LTD4 were standardized as a percentage of the maximum response obtained to a reference agonist, carbachol (10 μM).
Calculations: The averages of the triplicate LTD4 concentration-response curves both in the presence and absence of the test compound were plotted on log graph paper. The concentration of LTD4 needed to elicit 30% of the contraction elicited by carbachol was measured and defined as the EC30. The -log KB value for the test compound was determined by the following equations: [formula]
The antagonist activity of representative compounds of this invention is tabulated below. The -log KB values were calculated from the above test protocol.
For CCCCCCCCCCC#CC(SCCC(=O)O)SCCC(=O)O [R1 = C10 H21, m = 2, n = 2, 4,6-dithia-5-(1-dodecynyl)-nonanedioic acid], the Kb was 0.794 µM.
Compound CCCCCCCCC#CC(SCCC(=O)O)SCCC(=O)O [R1 = C8 H17, m = 2, n = 2, 4,6-Dithia-5-(1-decynyl)-nonanedioic acid] has a Kb of 10 µM.
For CCCCCCCCCCC#CC(SCCCC(=O)O)SCCCC(=O)O [R1 = C10 H21, m = 3, n = 3, 5,7-dithia-6-(1-dodecynyl)-undecanedioic acid], the Kb was 3.16 µM.
CCCCCCCCCCCCC#CC(SCCC(=O)O)SCCC(=O)O [R1 = C12 H25, m = 2, n = 2, 4,6-dithia-5-(1-tetradecynyl)-nonanedioic acid] gave a Kb of 2 µM.
CCCCCCCCCCC#CC(SCC(=O)O)SCC(=O)O [R1 = C10 H21, m = 1, n = 1, 3,5-dithia-4-(1-dodecynyl)-heptanedioic acid] showed a Kb of 5.01 µM.

— US4623535A, “Leukotriene antagonists” (SmithKline Beckman Corporation, priority 1984, dated 1986)
